According to ChEMBL document CHEMBL4308867, “Discovery of naldemedine: A potent and orally available opioid receptor antagonist for treatment of opioid-induced adverse effects” (Bioorg Med Chem Lett, 2019):

Legend:
[1] = Oral bioavailability in rat at 1 mg/kg administered as cassette dose; type: ADME, organism-based; settings: in vivo
[2] = Stability in human microsomes assessed as parent compound remaining at 0.5 uM measured after 0.5 hrs; type: ADME, Microsome; settings: read-out: Stability
[3] = Total clearance in rat at 1 mg/kg, po administered as cassette dose; type: ADME, organism-based; settings: in vivo
[4] = Stability in rat microsomes assessed as parent compound remaining at 0.5 uM measured after 0.5 hrs; type: ADME, Microsome; settings: read-out: Stability
[5] = Cmax in rat brain at 1 mg/kg, po administered as cassette dose; type: ADME, organism-based; set-up: dose 1 mg/kg, route oral
[6] = Brain to blood partition coefficient, Kp of the compound in rat at 1 mg/kg, po administered as cassette dose; type: ADME, organism-based
[7] = Chemical stability of the compound; type: physicochemical
Mu-type opioid receptor [8] = biological target: T1, Mu-type opioid receptor (Homo sapiens, UniProt P35372); experiment: Displacement of [3H]-DAMGO from recombinant human mu-opioid receptor expressed in CHOK1 cells; type: cell-based
[9] = Stability in plasma (unknown origin) assessed as parent compound remaining after 24 hrs; type: ADME, cell-free; settings: read-out: Stability
[10] = biological target: T2, Delta-type opioid receptor (Homo sapiens, UniProt P41143); experiment: Displacement of [3H]-DADLE from recombinant human delta-opioid receptor expressed in HEK293 cells; type: cell-based
[11] = Drug metabolism assessed as formation of 14-O-acyl form and 7-acyl form mixture
Rattus norvegicus [12] = species: Rattus norvegicus; experiment: […]; type: functional; settings: po
[13] = Selectivity ratio of ED50 for inhibition of morphine-induced analgesia in po dosed rat to ED50 for inhibition of morphine-induced emesis/vomiting in po dosed ferret; type: functional
Mustela putorius furo [14] = experiment: In vivo antagonist activity at mu-opioid receptor in po dosed ferret assessed as inhibition of morphine-induced emesis/vomiting; type: functional
Rattus norvegicus [15] = experiment: Selectivity ratio of ED50 for inhibition of morphine-induced analgesia in po dosed rat to ED50 for inhibition of morphine-induced constipation in po dosed rat; type: functional
Rattus norvegicus [16] = experiment: Antianalgesic activity in po dosed rat assessed as inhibition of morphine-induced analgesia by tail-flick test; type: functional
Mu-type opioid receptor [17] = biological target: T1, Mu-type opioid receptor; experiment: Antagonist activity at mu-opioid receptor (unknown origin) by [35S]-GTPgammaS binding assay; type: functional
[18] = biological target: T2, Delta-type opioid receptor; experiment: Antagonist activity at delta-opioid receptor (unknown origin) by [35S]-GTPgammaS binding assay; type: functional
Rattus norvegicus [19] = experiment: In vivo antagonist activity at […] in sc dosed rat assessed as inhibition of morphine-induced constipation; type: functional
Mustela putorius furo [20] = experiment: In vivo antagonist activity at mu-opioid receptor in sc dosed ferret assessed as inhibition of morphine-induced emesis/vomiting; type: functional

T1 sequence (P35372 whole entry): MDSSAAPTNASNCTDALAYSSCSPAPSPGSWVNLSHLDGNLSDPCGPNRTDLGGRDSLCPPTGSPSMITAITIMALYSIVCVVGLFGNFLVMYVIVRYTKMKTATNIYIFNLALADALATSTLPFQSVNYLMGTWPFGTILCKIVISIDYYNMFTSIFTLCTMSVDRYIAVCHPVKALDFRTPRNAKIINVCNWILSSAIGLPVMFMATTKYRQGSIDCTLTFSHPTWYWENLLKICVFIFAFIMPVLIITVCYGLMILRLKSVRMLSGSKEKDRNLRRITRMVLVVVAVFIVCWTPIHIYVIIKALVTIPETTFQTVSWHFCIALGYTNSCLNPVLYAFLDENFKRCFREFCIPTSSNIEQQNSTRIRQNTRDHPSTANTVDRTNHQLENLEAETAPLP
T2 sequence (P41143 whole entry): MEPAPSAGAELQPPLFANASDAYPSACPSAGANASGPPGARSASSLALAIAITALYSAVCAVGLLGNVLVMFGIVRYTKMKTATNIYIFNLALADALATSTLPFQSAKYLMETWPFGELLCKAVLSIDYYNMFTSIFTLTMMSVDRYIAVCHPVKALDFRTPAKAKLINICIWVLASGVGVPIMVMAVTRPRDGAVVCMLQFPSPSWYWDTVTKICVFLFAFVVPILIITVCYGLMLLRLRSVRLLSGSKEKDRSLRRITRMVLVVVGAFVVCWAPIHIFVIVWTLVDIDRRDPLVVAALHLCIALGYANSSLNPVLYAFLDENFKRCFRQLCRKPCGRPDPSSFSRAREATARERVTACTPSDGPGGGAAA

Compound	bioavailability [1]	remaining at 0.5 h, 0.5 µM [2]	CL/F [3]	remaining at 0.5 h, 0.5 µM [4]	Cmax [5]	Kp [6]	Stability [7]	Ki (Mu-type opioid receptor [8])	remaining at 24 h [9]	Ki [10]	Drug metabolism [11]	ED50 (Rattus norvegicus [12])	Ratio ED50 [13]	ED50 (Mustela putorius furo [14])	Ratio ED50 (Rattus norvegicus [15])	ED50 (Rattus norvegicus [16])	Ke (Mu-type opioid receptor [17])	Ke [18]	ED50 (Rattus norvegicus [19])	ED50 (Mustela putorius furo [20])
O=C(C1=C(O)[C@@H]2Oc3c(O)ccc4c3[C@@]23CCN(CC2CC2)[C@H](C4)[C@]3(O)C1)N1CCCC1	18%	99%	102 mL/min/kg	24%	3 ng/mL	0.22	Stable	4 nM	> 80%	7.4 nM										
CCC(=O)C1=C(O)[C@@H]2Oc3c(O)ccc4c3[C@@]23CCN(CC2CC2)[C@H](C4)[C@]3(O)C1	6.4%	85%	313 mL/min/kg	46%	6.5 ng/mL	1.7		1.4 nM	< 20%	9.9 nM	Metabolite detected									
O=C(O)c1ccc2c3c([nH]c2c1Cl)[C@@H]1Oc2c(O)ccc4c2[C@@]12CCN(CC1CC1)[C@H](C4)[C@]2(O)C3	0.2%	97%	18.1 mL/min/kg	100%	0.032 ng/mL	0.03		19 nM		1 nM										
CC(C)NC(=O)C1=C(O)[C@@H]2Oc3c(O)ccc4c3[C@@]23CCN(CC2CC2)[C@H](C4)[C@]3(O)C1	50%	95%	41 mL/min/kg	88%			Stable	3.4 to 5.2 nM	> 80%	2 to 7.4 nM		0.57 mg/kg	266	0.04 mg/kg	19	10.7 mg/kg	6.2 nM	3.8 nM		
N#Cc1ccc(NC(=O)C2=C(O)[C@@H]3Oc4c(O)ccc5c4[C@@]34CCN(CC3CC3)[C@H](C5)[C@]4(O)C2)cc1	12%	103%	8.5 mL/min/kg	92%	1.3 ng/mL	0.03	Stable	5.1 nM	> 80%	11.1 nM										
CC(C)(NC(=O)C1=C(O)[C@@H]2Oc3c(O)ccc4c3[C@@]23CCN(CC2CC2)[C@H](C4)[C@]3(O)C1)C(=O)NS(C)(=O)=O	0.77%	104%	15 mL/min/kg	99%	0.018 ng/mL	0.01	Stable	93.6 nM	> 80%	5.5 nM										
O=C(Nc1ccccc1)C1=C(O)[C@@H]2Oc3c(O)ccc4c3[C@@]23CCN(CC2CC2)[C@H](C4)[C@]3(O)C1	57%	89%	36 mL/min/kg	78%			Stable	1 to 4.1 nM	> 80%	6.8 to 20 nM		0.99 mg/kg	413	0.04 mg/kg	17	16.5 mg/kg	3.2 nM	3.6 nM		
CC(C)(NC(=O)C1=C(O)[C@@H]2Oc3c(O)ccc4c3[C@@]23CCN(CC2CC2)[C@H](C4)[C@]3(O)C1)c1nc(-c2ccccc2)no1 [NALDEMEDINE]	29%	73%	20 mL/min/kg	76%	1.3 ng/mL	0.03	Stable	1.1 to 1.13 nM	> 80%	0.91 nM		0.03 mg/kg	>1000	0.03 mg/kg	>500	> 30 mg/kg	0.05 nM	0.37 nM		
COC(=O)C1(NC(=O)C2=C(O)[C@@H]3Oc4c(O)ccc5c4[C@@]34CCN(CC3CC3)[C@H](C5)[C@]4(O)C2)CC1	11%	100%	30 mL/min/kg	103%	1.3 ng/mL	0.06	Stable	1.6 nM	> 80%	9.8 nM		0.57 mg/kg	>3846	0.026 mg/kg	>175	> 100 mg/kg	4.1 nM	7.6 nM		
O=C(O)c1ccc2c3c([nH]c2c1)[C@@H]1Oc2c(O)ccc4c2[C@@]12CCN(CC1CC1)[C@H](C4)[C@]2(O)C3	0.1%	98%	71.8 mL/min/kg	97%	0.023 ng/mL	0.03		18 nM		0.62 nM										
C[N@+]1(CC2CC2)CC[C@]23c4c5ccc(O)c4O[C@H]2C(=O)CC[C@@]3(O)[C@H]1C5.[Br-] [METHYLNALTREXONE BROMIDE]																	56 nM	1080 nM	4.5 mg/kg	0.69 mg/kg
O=C(Nc1ccc2cc[nH]c2c1)C1=C(O)[C@@H]2Oc3c(O)ccc4c3[C@@]23CCN(CC2CC2)[C@H](C4)[C@]3(O)C1	13%	93%	28 mL/min/kg	86%	0.56 ng/mL	0.04	Stable	2.4 nM	> 80%	18.9 nM										
Cc1nc(N)nc2c1C[C@@]1(O)[C@H]3Cc4ccc(O)c5c4[C@@]1(CCN3CC1CC1)[C@H]2O5	42.5%	92%	220 mL/min/kg	58%	4.6 ng/mL	0.31		8.6 nM		2.1 nM										
C[C@H](CO)NC(=O)C1=C(O)[C@@H]2Oc3c(O)ccc4c3[C@@]23CCN(CC2CC2)[C@H](C4)[C@]3(O)C1	3.4%		27 mL/min/kg		0.21 ng/mL	0.05	Stable	19.4 nM	> 80%	18 nM										
Cc1noc(C(C)(C)NC(=O)C2=C(O)[C@@H]3Oc4c(O)ccc5c4[C@@]34CCN(CC3CC3)[C@H](C5)[C@]4(O)C2)n1	11%	92%	29 mL/min/kg	99%	0.29 ng/mL	0.04	Stable	7.3 nM	> 80%	5.8 nM										
CC(=O)C1=C(O)[C@@H]2Oc3c(O)ccc4c3[C@@]23CCN(CC2CC2)[C@H](C4)[C@]3(O)C1	4%	95%	233 mL/min/kg	80%	5.8 ng/mL	1.1		0.95 nM	< 20%	31 nM	Metabolite detected									
COC(=O)C(C)(C)NC(=O)C1=C(O)[C@@H]2Oc3c(O)ccc4c3[C@@]23CCN(CC2CC2)[C@H](C4)[C@]3(O)C1	68%	101%	25 mL/min/kg	103%	5.1 ng/mL	0.08	Stable	16.5 nM	> 80%	3.99 nM										
O=C(Nc1ccccn1)C1=C(O)[C@@H]2Oc3c(O)ccc4c3[C@@]23CCN(CC2CC2)[C@H](C4)[C@]3(O)C1	55%	98%	25 mL/min/kg	97%	5.6 ng/mL	0.05	Stable	9.8 nM	> 80%	6.8 nM										
Cc1n[nH]c2c1C[C@@]1(O)[C@H]3Cc4ccc(O)c5c4[C@@]1(CCN3CC1CC1)[C@H]2O5	26.9%	98%	199 mL/min/kg	81%	2.2 ng/mL	0.25		24 nM		1.2 nM										
O=C(NCc1ccccc1)C1=C(O)[C@@H]2Oc3c(O)ccc4c3[C@@]23CCN(CC2CC2)[C@H](C4)[C@]3(O)C1	46%	94%	61 mL/min/kg	14%	12 ng/mL	0.17	Stable	1.1 nM	> 80%	16 nM										
CC(C)(NC(=O)C1=C(O)[C@@H]2Oc3c(O)ccc4c3[C@@]23CCN(CC2CC2)[C@H](C4)[C@]3(O)C1)C(=O)O	0.52%		28 mL/min/kg		0.055 ng/mL	0.04	Stable	46.1 nM	> 80%	11.8 nM										
